According to patent US8822435B2, “Bisphosphonate compounds” (Warner Chilcott Company, LLC, priority 2009, dated 2014):
Several values for one entry are separate records, joined by “and”; a condition that tells them apart may be missing. Equal values may be shown once.

Columns and labels:
[1] = Urinary recovery of cyclic acetal and conversion to bisphosphonate after IV administration to rats; format: in vivo, rat; conditions: for dosed cyclic acetal converted to risedronate: male, Sprague-Dawley
Description: (§1) Male, Sprague-Dawley, rats weighing approximately 200-400 g were studied.
(§2) All formulations were prepared within approximately 1 hour of dosing.
Generally, animals were administered a 1.7 micromole/kg, 2 ml/kg IV dose (tail vein) of the appropriate formulation using a syringe and attached butterfly needle. All animals remained fasted for an additional 4 hours post dose and were returned to ad libitum access to food thereafter.
(§3) Urine samples were collected into refrigerated plastic conical tubes at approximately 4, 8 and 24 hours post-dose. At the end of each collection period, samples were weighed and transferred to a −70° C. freezer for storage until analyzed.
The absorbed risedronate is stable in vivo and is not metabolized. After IV administration of risedronate to rats, about 60% of risedronate binds to bone and about 40% of risedronate dosed is excreted in urine. When risedronate cyclic acetal compounds are administered intravenously to rats, a percentage of the cyclic acetal can remain intact and can be excreted in urine while a percentage of the cyclic acetal can be converted to risedronate in vivo. Assuming risedronate formed in vivo has the similar tissue distribution profile as described above, about 40% of risedronate generated in vivo will be excreted in urine and about 60% of risedronate generated in vivo will bind to bone. Thus, the percentage of the cyclic acetal which is converted to risedronate in vivo is estimated using Formula A: […]
Risedronate cyclic acetal compounds were administered intravenously in saline (0.9% sodium chloride).

[2] = Solubility in water (remark in synthesis example); format: physicochemical; conditions: calcium salt
[3] = tested on: Sprague Dawley rats (Schenk Model); test: Schenk Model: bone mineral density of proximal tibial metaphysis by DXA; format: in vivo, rat; conditions: for D20, 20% > BMD than control / LED (lowest effective dose): SQ once daily for 7 days, rats; for D20, 20% > BMD than control: logistic dose response relationship; for LED (lowest effective dose): significant anti-resorptive dose vs control; for bone density in the rat proximal tibial metaphysis: Schenk Model
Description: The effect of the compounds (Example 62 (trans) and Example 128) on in vivo bone resorption inhibition and mineralization inhibition was evaluated in the Schenk Model, an animal model system known in the field of bone metabolism. The general principles of this model are disclosed in Shinoda et al., Calcif. Tissue Int., 35: 87-99 (1983); and in Schenk et al., Calcif: Tissue Res. 11: 196-214 (1973).
Male Sprague Dawley rats approximately 6 weeks old with weights ranging between 120 and 150 grams were placed into groups based on body weight, with 4-8 animals per group. All groups received treatment by subcutaneous injection (SQ) once daily for 7 days.
On day 7 after the start of dosing, all animals were euthanized via exsanguination under gas anesthesia and/or CO2. The right tibia and femur were dissected free and placed in 70% ethyl alcohol.
The proximal metaphysis of the right tibia was analyzed using dual energy x-ray absorptiometry (DXA). This provides information on changes in both cortical and cancellous bone density. The primary end-point for this study was bone mineral density (BMD) in the tibia measured using Hologics QDR-4500 densitometer (Hologics, Inc). Statistical evaluation of data was made using parametric and non-parametric analysis of variance and Fisher's protected t-test to determine a statistically significant effect compared to control animals, defined as the lowest effective (significant anti-resorptive) dose (LED).
The dose which increased (BMD) 20% compared to the vehicle group (D20) was calculated via a logistic dose response relationship, which estimates an efficacy value using all animals in the study (Lundy et al., J. Bone Min. Res. 22 (Suppl. 1): S443, (2007)).

[4] = Urinary recovery / risedronate exposure after intraduodenal (ID) and oral (PO) administration to fasted and fed rats; format: in vivo, rat; conditions: for Amount Excreted: Risedronate (risedronate administered): dose 17 micromole/kg, rats
Description: as §1, §2
The appropriate test article formulation was administered to each animal as a 17 micromole/kg, 2 mL/kg dose solution in 0.6% methylcellulose/0.2% Tween 80® by oral gavage. Alternatively, animals were dosed with a 17 micromole/kg, 1 mL/kg dose solution in saline through a cannula into the duodenum. Animals in the fasted groups were fasted for approximately 4 hours after dosing and were returned to ad libitum access to food thereafter. Animals in the fed groups had access to food ad libitum for at least 2 hours prior to dosing, and throughout the day post dose.
as §3
Example 62 (trans) and risedronate were administered via intraduodenal (ID) and oral administration to fasted and fed rats. Similar to the procedure described above in relation to the IV study, the urine of the rats was collected, and risedronate was recovered from urine. Risedronate exposure following ID and oral administration was calculated as percentage of the recovered risedronate from the dosed cyclic acetal (Formula A), and the results were compared to that from dosing with risedronate, See Table 4.

[5] = IV, dose 1.7 micromole/kg, rats, % CV in parentheses
[6] = after IV administration of risedronate to rats

CC(=O)Oc1ccc(C2OP(=O)(O)C(O)(Cc3cccnc3)P(=O)(O)O2)cc1 (centres unmarked) [Example 28]
urinary recovery of the cyclic acetal ([1]; rat, in vivo, iv): very low

CCCC(=O)Oc1ccc(C2OP(=O)(O)C(O)(Cc3cccnc3)P(=O)(O)O2)cc1 (centres unmarked) [Example 29]
dosed cyclic acetal converted to risedronate ([1]; rat, in vivo, iv): > 100% | urinary recovery of the cyclic acetal ([1]; rat, in vivo, iv): very low

CCCC(=O)Oc1ccc(C2OP(=O)(O)C(O)(Cc3cccnc3)P(=O)(O)O2)cc1F (centres unmarked) [Example 30]
urinary recovery of the cyclic acetal ([1]; rat, in vivo, iv): very low

CC(C)C(=O)Oc1ccc(C2OP(=O)(O)C(O)(Cc3cccnc3)P(=O)(O)O2)cc1 (stereo not drawn) [Example 33 (trans)]
urinary recovery of the cyclic acetal ([1]; rat, in vivo, iv): very low

CCOC(=O)Oc1ccc(C2OP(=O)(O)C(O)(Cc3cccnc3)P(=O)(O)O2)cc1 (centres unmarked) [Example 36]
systemic exposure of cyclic acetal and risedronate ([1]; rat, in vivo, iv): both systemic exposure of the cyclic acetal and risedronate

CC(C)=CC(=O)Oc1ccc(C2OP(=O)(O)C(O)(Cc3cccnc3)P(=O)(O)O2)cc1F (centres unmarked) [Example 47]
urinary recovery of the cyclic acetal ([1]; rat, in vivo, iv): very low

COC(=O)Oc1ccccc1C1OP(=O)(O)C(O)(Cc2cccnc2)P(=O)(O)O1 (stereo not drawn) [Example 50 (trans)]
systemic exposure of cyclic acetal and risedronate ([1]; rat, in vivo, iv): both systemic exposure of the cyclic acetal and risedronate

O=C(Oc1c(F)cccc1C1OP(=O)(O)C(O)(Cc2cccnc2)P(=O)(O)O1)N1CCOCC1 (centres unmarked) [Example 53]
solubility in water [2]: very low

CC(C)OC(=O)Oc1ccccc1C1OP(=O)(O)C(O)(Cc2cccnc2)P(=O)(O)O1 (stereo not drawn) [Example 62 (trans)]
risedronate release rate into the bloodstream vs risedronate ([1]; rat, in vivo, iv): slower | systemic exposure of cyclic acetal and risedronate ([1]; rat, in vivo, iv): both systemic exposure of the cyclic acetal and risedronate | D20, 20% > BMD than control [3]: 5 mcg P/kg | LED (lowest effective dose) [3]: 3 mcg P/kg | bone density in the rat proximal tibial metaphysis [3]: efficacious

CC(C)OC(=O)Oc1ccc(C2OP(=O)(O)C(O)(Cc3cccnc3)P(=O)(O)O2)c(F)c1 (centres unmarked) [Example 63]
urinary recovery of the cyclic acetal ([1]; rat, in vivo, iv): very low

O=C(Cc1ccccc1)Oc1ccc(C2OP(=O)(O)C(O)(Cc3cccnc3)P(=O)(O)O2)cc1 (stereo not drawn) [Example 79 (trans)]
Amount of Cyclic Acetal Excreted [1, 5]: 0.3 (220) % of administered dose excreted in urine

O=C(Cc1ccccc1)Oc1ccc(C2OP(=O)(O)C(O)(Cc3cccnc3)P(=O)(O)O2)cc1 (centres unmarked) [Example 79]
urinary recovery of the cyclic acetal ([1]; IV, rats, rapid rate of conversion to risedronate in vivo): very low

O=C1OCCN1C(=O)Oc1ccccc1C1OP(=O)(O)C(O)(Cc2cccnc2)P(=O)(O)O1 (centres unmarked) [Example 82]
dosed cyclic acetal converted to risedronate ([1]; rat, in vivo, iv): 43%

CC1(C)CN(C(=O)Oc2cc(F)c(C3OP(=O)(O)C(O)(Cc4cccnc4)P(=O)(O)O3)c(F)c2)C(=O)O1 (centres unmarked) [Example 83]
urinary recovery of the cyclic acetal ([1]; rat, in vivo, iv): very low

CCCC(=O)Oc1ccccc1C1OP(=O)(O)C(O)(Cc2cccnc2)P(=O)(O)O1 (centres unmarked) [Example 105]
urinary recovery of the cyclic acetal ([1]; rat, in vivo, iv): very low

CC(C)OC(=O)Oc1ccccc1C1OP(=O)(O)C(O)(Cn2ccnc2)P(=O)(O)O1 (centres unmarked) [Example 128, Carbonic acid isopropyl ester 2-(2,3,4-trihydroxy-3-imidazol-1-ylmethyl-2,4-dioxo-2λ^5,4λ^5-[1,5,2,4]dioxadiphosphinan-6-yl)-phenyl ester]
D20, 20% > BMD than control [3]: 0.5 mcg P/kg | LED (lowest effective dose) [3]: 1 mcg P/kg | bone density in the rat proximal tibial metaphysis [3]: efficacious

O=P(O)(O)C(O)(Cc1cccnc1)P(=O)(O)O [Risedronate, risedronate, reference compound]
Amount Excreted: Risedronate (risedronate administered) [1, 5]: 36 (13) % of administered dose excreted in urine and 39 % of administered dose excreted in urine | risedronate binds to bone [1, 6]: about 60% | risedronate dosed excreted in urine [1, 6]: about 40% | Amount Excreted: Risedronate (risedronate administered) ([4]; ID fed, % CV in parentheses): 0.012 (50) % of administered dose excreted in urine | Amount Excreted: Risedronate (risedronate administered) ([4]; Oral fast): 0.13 % of administered dose excreted in urine | Amount Excreted: Risedronate (risedronate administered) ([4]; Oral fed): 0.003 % of administered dose excreted in urine | risedronate exposure with food compared to fasted rats ([4]; fed rats): extensive reduction | risedronate exposure as estimated by urinary recovery ([4]; orally to fasted rats): less than 1 % of dose | D20, 20% > BMD than control [3]: 1.8 mcg P/kg | LED (lowest effective dose) [3]: 1 mcg P/kg

O=P(O)(O)C(O)(Cn1ccnc1)P(=O)(O)O [Zoledronic acid, (1-hydroxy-2-imidazol-1-yl)-ethyl-1,1-bisphosphonic acid, reference compound]
D20, 20% > BMD than control [3]: 0.1 mcg P/kg | LED (lowest effective dose) [3]: 0.1 mcg P/kg
